Measured values as given in patent publication US20240166703A1, “ANTI-INFLAMMATORY PEPTIDE AND METHOD OF USE THEREOF” (The Regents of the University of California, priority 2021, published 2024).
“Also recorded” adds a separate entry of the source.

What was measured:
[1] = test system: MAP kinases JNK, Erk2 and p38; assay: Western blot of MAP kinase phosphorylation in TNF-α-treated HeLa cells; type: cell-based, human
Experimental: (§1) Equivalent amounts of protein from cell extracts was separated by SDS-PAGE and transferred to polyvinylidene fluoride (PVDF) membranes (Millipore, Bedford, MA, USA). The membrane was blocked with 5% bovine serum albumin (BSA) for 1 hour at room temperature and then the membrane was incubated with the primary antibodies overnight at 4° C. Antibodies for IKK2, His, HA, Myc, GST, Ubiquitin, IκBα, phospho-IKK2, p65/ReIA, p84, γ-Actin, p100/52, phospho-ERK, phospho-JNK, phospho-p38, ERK, JNK, and p38 were used for detecting multiple specific protein targets. After binding of an appropriate secondary antibody coupled to horseradish peroxidase, the immunoreactive bands were visualized by enhanced chemiluminescence substrate.
It was also tested if TAT-NEMO^ActPep has any effect on non-canonical NF-κB signaling. This alternative NF-κB signaling pathway is activated in response to stimulation of specific cytokine receptors and leads to activation of IKK1 and consequent processing of the p100 precursor to the mature NF-κB subunit p52 (30,31). […] To further investigate the possible involvement of TAT-NEMO^ActPep in other signaling pathways, the effect of the peptide on MAPK activation was tested by monitoring the phosphorylation status of JNK, Erk2, and p38 upon TNF-α treatment of HeLa cells. […]

[2] = test system: NF-κB DNA binding in RAW 264.7 murine macrophage cells; assay: EMSA of NF-κB DNA binding, nuclear lysates of LPS-treated RAW 264.7 cells; type: cell-based; settings: RAW 264.7 cells, 100 ng/mL LPS for 2 hours
Experimental: (§2) To prepare nuclear and cytoplasmic protein extracts, HeLa, MEF, and RAW 264.7 cells were lysed in buffer containing 4.3 mM Na2HPO4, 1.47 mM KH2PO4 pH 7.4, 137 mM NaCl, 2.7 mM KCl, 1 mM DTT, 0.05% (v/v) NP-40, and 1×protease inhibitor cocktail for 10 minutes on ice and spun at 3,000 rpm at 4° C. for 10 minutes. The supernatant containing the cytoplasmic fraction was quantified by Bio-Rad protein assay to determine the total amount of protein. Pellets were resuspended in nuclear extraction buffer (25 mM Tris-HCl pH 7.5, 420 mM NaCl, 10% glycerol, 0.2 mM EDTA, 1 mM DTT, 0.5 mM PMSF, 1×protease inhibitor cocktail) once and then subjected to three lysis cycles (freeze at −80° C. and thaw at 37° C.). Finally, samples were centrifuged at 13,000 rpm at 4° C. for 20 minutes, and supernatants containing the soluble nuclear fraction were measured by the Bio-Rad protein assay to determine the total amount of protein. Nuclear and cytoplasmic extracts were aliquoted and kept at −80° C.
HeLa, MEF, RAW 264.7 cells were cultured in Dulbecco's MEM containing 10% fetal bovine […] supplemented with penicillin and streptomycin, at 37° C. in a humidity incubator with 5% CO2. RAW 264.7 cells were seeded and allowed to adhere for 24 hours then treated with NEMO^ActPep or NEMO^ActPep 6G at different concentrations 60 min before the LPS challenge (100 ng/ml). After 2 hours, nuclear and cytoplasmic extracts were collected. […]
(§3) Electrophoretic mobility shift assay (EMSA) was performed using recombinant full length NF-κB ReIA homodimer as a positive control as previously described (45). […] The amount of protein in lysates was quantified by Bio-Rad protein assay. EMSA analysis with quantitative densitometry and signal intensity was quantitated using ImageJ software. […]
It was then tested if the observed effect is universal across species and cell types. […] The effect of TAT-NEMO^ActPep on NF-κB DNA binding was also analyzed in MEF cells by EMSA.

[3] = test system: canonical NF-κB signaling through IKK2 in RAW 264.7 murine macrophage cells; assay: Western blot of canonical NF-κB signaling in LPS-treated RAW 264.7 cells; type: cell-based; settings: 100 ng/mL LPS for 2 hours
Experimental: as §2
(§4) HeLa, MEF, RAW 264.7 cells were cultured in Dulbecco's MEM containing 10% fetal bovine […] supplemented with penicillin and streptomycin, at 37° C. in a humidity incubator with 5% CO2. RAW 264.7 cells were seeded and allowed to adhere for 24 hours then treated with NEMO^ActPep or NEMO^ActPep 6G at different concentrations 60 min before the LPS challenge (100 ng/ml). After 2 hours, nuclear and cytoplasmic extracts were collected. HeLa and MEF cells seeded for 24 hours then treated with NEMO^ActPep or NEMO^ActPep 6G at different concentrations 60 min before the TNF-α challenge (10 ng/ml) for 15 minutes and then nuclear and cytoplasmic extracts were collected. MEF cells were treated with NEMO^ActPep or NEMO^ActPep 6G at different concentrations 1 hour before the LTβR challenge (300 ng/ml). After 24 hours whole cell extracts were collected and aliquoted and kept at −80° C. for further experiments.
as §1
It was then tested if the observed effect is universal across species and cell types. The effect of TAT-NEMO^ActPep was tested in RAW 264.7 murine macrophage cells treated with 100 ng/mL purified bacterial lipopolysaccharide (LPS) for 2 hours. Again, NF-κB DNA binding and ReIA subunit nuclear localization were both inhibited as were phosphorylation of the IKK2 activation loop and degradation of IκBα. […] The effect of TAT-NEMO^ActPep on NF-κB DNA binding was also analyzed in MEF cells by EMSA.

[4] = test system: non-canonical NF-κB signaling (IKK1, p100 processing); assay: Western blot of p100 processing after LTβR engagement (non-canonical NF-κB signaling); type: cell-based; settings: increasing peptide concentrations; HeLa cells per FIG. 5C legend
Experimental: as §4
Equivalent amounts of protein from cell extracts was separated by SDS-PAGE and transferred to polyvinylidene fluoride (PVDF) membranes (Millipore, Bedford, MA, USA). The membrane was blocked with 5% bovine serum albumin (BSA) for 1 hour at room temperature and then the membrane was incubated with the primary antibodies overnight at 4° C. […]

[5] = test system: canonical NF-κB signaling through IKK2 in HeLa cells; assay: Western blot of canonical NF-κB signaling in TNF-α-treated HeLa cells; type: cell-based, human; settings: increasing peptide concentrations
Experimental: as §2, §4, §1
The inhibitory effects of TAT-NEMO^ActPep were further verified on canonical NF-κB signaling in HeLa cells by assessing IKK2 activation loop phosphorylation, IκBα degradation, and NF-κB ReIA/p65 subunit subcellular localization. Consistent with the observations of decreased nuclear NF-κB DNA binding activity by EMSA, treatment with TAT-NEMO^ActPep blocked IKK2 phosphorylation, IκBα proteolysis, and nuclear translocation of ReIA (FIG. 5B).

[6] = test system: NF-κB DNA binding activity in HeLa cells; assay: EMSA of NF-κB DNA binding, nuclear extracts of TNF-α-treated HeLa cells; type: cell-based, human; settings: increasing concentrations 10-50 μM; TNF-α-treated HeLa cells
Experimental: as §2, §4, §3
It is intrigued by the ability of such a small segment (residues 384-389) of human NEMO to mediate interaction with and promote activation loop phosphorylation of IKK2. […] NF-κB activity was measured by EMSA using nuclear extracts and radiolabeled KB DNA from the immunoglobulin kappa light chain gene (Ig-κB) as the probe (FIG. 5A).

[7] = biological target: T1, IKK2 (purified recombinant; construct not stated for the experiment of FIG. 2D) (human, UniProt O14920 1-756, limits assumed); assay: GST pull-down with purified proteins in the presence of Ub4, western blot
T1 sequence (looked up): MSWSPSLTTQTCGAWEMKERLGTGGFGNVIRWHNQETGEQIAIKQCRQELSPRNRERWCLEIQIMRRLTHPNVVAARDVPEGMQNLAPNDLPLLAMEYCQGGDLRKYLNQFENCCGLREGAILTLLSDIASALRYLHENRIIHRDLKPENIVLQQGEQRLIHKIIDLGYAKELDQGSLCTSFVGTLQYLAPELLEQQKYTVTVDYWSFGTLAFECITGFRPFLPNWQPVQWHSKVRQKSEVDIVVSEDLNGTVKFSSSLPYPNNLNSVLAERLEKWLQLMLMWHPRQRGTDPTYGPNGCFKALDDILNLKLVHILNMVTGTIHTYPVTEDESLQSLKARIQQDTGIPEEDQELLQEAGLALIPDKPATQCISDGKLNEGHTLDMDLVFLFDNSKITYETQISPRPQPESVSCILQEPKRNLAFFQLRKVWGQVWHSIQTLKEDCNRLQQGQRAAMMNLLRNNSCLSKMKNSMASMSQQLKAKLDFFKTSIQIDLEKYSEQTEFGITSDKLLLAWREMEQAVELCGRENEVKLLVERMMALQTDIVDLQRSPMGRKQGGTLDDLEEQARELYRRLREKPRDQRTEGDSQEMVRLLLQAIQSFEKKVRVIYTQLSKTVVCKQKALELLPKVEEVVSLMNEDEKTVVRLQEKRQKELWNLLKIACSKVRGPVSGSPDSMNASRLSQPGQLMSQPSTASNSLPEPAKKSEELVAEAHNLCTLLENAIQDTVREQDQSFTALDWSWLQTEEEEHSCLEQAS

[8] = biological target: T2, full length human IKK2 (recombinant, N-terminal hexahistidine-TEV tag) (human, UniProt O14920 1-756); assay: GST pull-down with purified proteins, western blot
T2 construct: mature; Produced in Sf9 insect cells with baculovirus; also called IKKβ; full length IKK2; not shown: TEV cleavage site and vector residues of pFastBacHTb
T2 sequence: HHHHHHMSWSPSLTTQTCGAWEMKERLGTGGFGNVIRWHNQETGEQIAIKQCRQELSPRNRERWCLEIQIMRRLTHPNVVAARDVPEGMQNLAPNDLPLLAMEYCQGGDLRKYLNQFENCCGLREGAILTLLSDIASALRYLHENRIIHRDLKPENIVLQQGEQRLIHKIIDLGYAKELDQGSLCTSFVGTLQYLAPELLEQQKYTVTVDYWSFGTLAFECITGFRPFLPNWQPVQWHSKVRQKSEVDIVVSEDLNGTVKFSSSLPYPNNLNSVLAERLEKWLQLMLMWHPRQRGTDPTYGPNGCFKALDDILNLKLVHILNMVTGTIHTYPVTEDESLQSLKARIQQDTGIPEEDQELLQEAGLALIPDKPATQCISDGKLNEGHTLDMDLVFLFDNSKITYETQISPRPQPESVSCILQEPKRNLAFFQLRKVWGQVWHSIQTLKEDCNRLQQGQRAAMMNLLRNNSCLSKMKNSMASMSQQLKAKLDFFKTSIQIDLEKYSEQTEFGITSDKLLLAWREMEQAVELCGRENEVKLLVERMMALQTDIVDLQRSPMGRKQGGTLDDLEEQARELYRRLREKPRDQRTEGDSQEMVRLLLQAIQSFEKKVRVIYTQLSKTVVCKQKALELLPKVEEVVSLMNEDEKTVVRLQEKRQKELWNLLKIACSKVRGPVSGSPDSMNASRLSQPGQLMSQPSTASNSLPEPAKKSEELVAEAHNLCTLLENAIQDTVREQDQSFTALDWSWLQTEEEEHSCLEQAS

TAT-NEMO^ActPep 6G: control variant of TAT-NEMO^ActPep with NEMO residues 384-389 mutated to glycine (SEQ ID NO 3) (YGRKKRRQRRRGGLSSPLALPSGGGGGGEE) [reference compound]
phosphorylation of JNK, Erk2 and p38 MAP kinases (western blot) [1]: Neither TAT-NEMO^ActPep nor TAT-NEMO^ActPep 6G influenced; also recorded: no effect | NF-κB DNA binding [2]: did not show such effects | ReIA subunit nuclear localization (western blot) [3]: did not show such effects | degradation of IκBα (western blot) [3]: did not show such effects | phosphorylation of the IKK2 activation loop (western blot) [3]: did not show such effects | processing of p100 in response to LTβR engagement (western blot) [4]: not observed any effect; also recorded: no change in the extent of p100 processing | IKK2 activation loop phosphorylation (western blot) [5]: showed no such effects | IκBα degradation / proteolysis (western blot) [5]: showed no such effects | NF-κB ReIA/p65 subunit nuclear localization (western blot) [5]: showed no such effects | NF-κB-dependent shift of radiolabeled probe (EMSA) [6]: reduction was not observed; also recorded: does not

B1: GST-NEMO^241-419 6G (other, human, UniProt Q9Y6K9 241-419, looked up)
chain: YDNHIKSSVVGSERKRGMQLEDLKQQLQQAEEALVAKQEVIDKLKEEAEQHKIVMETVPVLKAQADIYKADFQAERQAREKLAEKKELLQEQLEQLQREYSKLKASCQESARIEDMRKRHVEVSQAPLPPAPAYLSSPLALPSGGGGGGEEPPDFCCPKCQYQAPDMDTLQIHVMECIE
notes: not shown: glutathione-S-transferase (GST) tag of vector pGEX4T-2, N-terminal
binding result [7]: no binding

B2: GST-NEMO^241-419 3G (other, human, UniProt Q9Y6K9 241-419, looked up)
chain: YDNHIKSSVVGSERKRGMQLEDLKQQLQQAEEALVAKQEVIDKLKEEAEQHKIVMETVPVLKAQADIYKADFQAERQAREKLAEKKELLQEQLEQLQREYSKLKASCQESARIEDMRKRHVEVSQAPLPPAPAYLSSPLALPSGGGSPPEEPPDFCCPKCQYQAPDMDTLQIHVMECIE
notes: as for B1
binding result [7]: no binding

B3: GST-NEMO^111-419 (other, human, UniProt Q9Y6K9 111-419, looked up)
chain: KLDLKRQKEQALREVEHLKRCQQQMAEDKASVKAQVTSLLGELQESQSRLEAATKECQALEGRARAASEQARQLESEREALQQQHSVQVDQLRMQGQSVEAALRMERQAASEEKRKLAQLQVAYHQLFQEYDNHIKSSVVGSERKRGMQLEDLKQQLQQAEEALVAKQEVIDKLKEEAEQHKIVMETVPVLKAQADIYKADFQAERQAREKLAEKKELLQEQLEQLQREYSKLKASCQESARIEDMRKRHVEVSQAPLPPAPAYLSSPLALPSQRRSPPEEPPDFCCPKCQYQAPDMDTLQIHVMECIE
notes: as for B1
binding result [8]: no binding
